From US20240049707A1, “PESTICIDE COMPOSITIONS OF LICOCHALCONE C” (METABOLIC INSIGHTS LTD., priority 2020, published 2024)

Tested on: Fusarium oxysporum
Assay: Microplate based screening of bioactivity against Fusarium oxysporum
Format: cell-based
Details: 10 μl of 250 ppm solution + 40 μl inoculum, activity grade x repeats x days of activity/252 x 100
Method: Diluted in DMSO Licochalcone C was added to microplate wells and mixed with freshly prepared spore suspension and growth of the fungus, starting from frozen spores, was monitored using the plate reader and by visual inspection. […]
Microplate Preparation for Licochalcone C Bioactivity Experiment: • 1) Take a stock solution of purified 1% Licochalcone C in DMSO from the −20 freezer and thaw it on the bench. • 2) Take 1 μl of stock solution of 1% Licochalcone C and dilute up to 250 ppm with 39 μl of water. • 3) Take 10 μl of the diluted (250 ppm) Licochalcone C solution into the wells of the microplate using a multi-pipette. • 4) Add 40 μl of vigorously mixed spore suspension inoculum to the wells of the microplate using a multi-pipette. • 5) Seal the plate with transparent sealer • 6) Shake the plate for 10 min at 2000 RPM to mix the materials with the hyphae suspension • 7) Centrifugate the plate at 1000RCF for is and stop to collect the liquid at the bottom of the plate • 8) Keep the microplate on the bench until it is read by the plate reader • 9) Read the plate using the plate reader • 10) Collect the plates on the bench • 11) Insert collected plates to a plastic box with cloth cover and put the box in the incubator at 25° C. […]

For `COc1c(/C=C/C(=O)c2ccc(O)cc2)ccc(O)c1CC=C(C)C` [Licochalcone C, (E)-3-[4-hydroxy-2-methoxy-3-(3-methylbut-2-enyl)phenyl]-1-(4-hydroxyphenyl)prop-2-en-1-one], the “Relative Activity value (%)” value was 25%.
